Source: ChEMBL document CHEMBL1201862, “PubChem BioAssay data set” (2004)
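All cell lines were grown in 96-well plates and treated with compound for 48 hours. GI50 is the concentration that inhibits growth by half.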 Activity calls are given as the source filed them. Cut-off read from the data, not from the text of the source: active = GI50 up to about 1.1 µM and inactive = higher.

What was measured:
Test in all cases: NCI anticancer screen, dose series, 48 h
786-0 = system: 786-0
A549 = system: A549
ACHN = system: ACHN
CAKI-1 = system: CAKI-1
CCRF-CEM = system: CCRF-CEM
COLO 205 = system: COLO 205
DLD-1 = system: DLD-1
DMS-114 = system: DMS-114
DMS-273 = system: DMS-273
EKVX = system: EKVX
HCT-116 = system: HCT-116
HCT-15 = system: HCT-15
HL-60 = system: HL-60
HOP-18 = system: HOP-18
HOP-92 = system: HOP-92
HT-29 = system: HT-29
IGROV-1 = system: IGROV-1
K562 = system: K562
KM-20L2 = system: KM-20L2
LOX IMVI = system: LOX IMVI
LXFL 529 = system: LXFL 529
M14 = system: M14
M19-MEL = system: M19-MEL
MOLT-4 = system: MOLT-4
NCI-H23 = system: NCI-H23
NCI-H460 = system: NCI-H460
NCI-H522 = system: NCI-H522
OVCAR-8 = system: OVCAR-8
RPMI-8226 = system: RPMI-8226
RXF 393 = system: RXF 393
RXF 631 = system: RXF 631
SF-268 = system: SF-268
SF-539 = system: SF-539
SK-MEL-28 = system: SK-MEL-28
SK-MEL-5 = system: SK-MEL-5
SK-OV-3 = system: SK-OV-3
SN12C = system: SN12C
SNB-19 = system: SNB-19
SW-620 = system: SW-620
TK-10 = system: TK-10
U-251 = system: U-251
UACC-62 = system: UACC-62
UO-31 = system: UO-31
XF498 = system: XF498

With `Cn1nc(-c2ccccc2)c(C(=O)/C=C/c2ccc(F)cc2)c(N2CCCCC2)c1=O` the GI50 (786-0) was 4.62 µM (inactive), the GI50 (A549) was 5.13 µM (inactive) and the GI50 (ACHN) was 12.7 µM (inactive). For the same compound, the GI50 (CAKI-1) was 8.75 µM (inactive), the GI50 (CCRF-CEM) was 2.61 µM (inactive) and the GI50 (COLO 205) was 4.12 µM (inactive). The GI50 (DLD-1) was 3.61 µM (inactive), the GI50 (DMS-114) was 3.86 µM (inactive) and the GI50 (DMS-273) was 4.03 µM (inactive). For the same compound, the GI50 (EKVX) was 16.3 µM (inactive), the GI50 (HCT-116) was 3.31 µM (inactive) and the GI50 (HCT-15) was 5.06 µM. For the same compound, the GI50 (HL-60) was 0.759 µM (active), the GI50 (HOP-18) was 5.66 µM (inactive) and the GI50 (HOP-92) was 3.85 µM (inactive). The GI50 (HT-29) was 5.32 µM (inactive), the GI50 (IGROV-1) was 11.5 µM (inactive) and the GI50 (K562) was 3.39 µM (inactive). The GI50 (KM-20L2) was 5.18 µM (inactive), the GI50 (LOX IMVI) was 3.5 µM (inactive) and the GI50 (LXFL 529) was 4.68 µM (inactive). For the same compound, the GI50 (M14) was 5.93 µM (inactive), the GI50 (M19-MEL) was 8.36 µM (inactive) and the GI50 (MOLT-4) was 2.63 µM (inactive). For the same compound, the GI50 (NCI-H23) was 4.19 µM (inactive), the GI50 (NCI-H460) was 4.83 µM (inactive) and the GI50 (NCI-H522) was 5.9 µM (inactive). The GI50 (OVCAR-8) was 5.81 µM (inactive), the GI50 (RPMI-8226) was 2.48 µM (inactive) and the GI50 (RXF 393) was 2.53 µM (inactive). For the same compound, the GI50 (RXF 631) was 8.61 µM (inactive), the GI50 (SF-268) was 6.35 µM (inactive) and the GI50 (SF-539) was 4.54 µM (inactive). For the same compound, the GI50 (SK-MEL-28) was 3.79 µM (inactive), the GI50 (SK-MEL-5) was 5.73 µM (inactive) and the GI50 (SK-OV-3) was 15 µM (inactive). For the same compound, the GI50 (SN12C) was 8.39 µM (inactive), the GI50 (SNB-19) was 13.2 µM (inactive) and the GI50 (SW-620) was 5.06 µM (inactive). For the same compound, the GI50 (TK-10) was 17.8 µM (inactive), the GI50 (U-251) was 5.74 µM (inactive) and the GI50 (UACC-62) was 6.27 µM (inactive). The GI50 (UO-31) was 5.58 µM (inactive) and the GI50 (XF498) was 21.1 µM (inactive).
